From US20180110757A1, “METHODS OF TREATING PRURITIS AND PAIN” (The Regents of the University of California, priority 2016, published 2018)

Legend:
S1PR3 = biological target: T1, S1PR3 (Mus musculus, UniProt Q9Z0U9); test: Ratiometric calcium imaging in cultured DRG neurons; format: cell-based, mice; settings: for calcium responses in cultured DRG neurons: S1P 100 nM, CYM 100 μM
T1 construct: attenuates S1P-evoked calcium responses in wild-type DRG sensory neurons; endogenous in cells; host or cells: cultured mouse dorsal root ganglion (DRG) neurons, wild-type
Description: FIG. 1A-1G. A. Graphical model illustrating the role of S1PR3-evoked itch in somatosensory neurons of the dorsal root ganglion (DRG). […] C. […] D. Venn diagram displaying overlap of S1P responsive neurons from ratiometric calcium imaging with known pruritogens and algogens in cultured DRG neurons. Pruritogens: HIS=histamine, CQ=chloroquine. Algogens: CAP=capsaicin, AITC=allyl-isothiocyanate. Data were collected from n>4,000 neurons. E. Scratching behavioral data for mice injected with 200 nM S1P or 0.1% methanol-PBS vehicle intradermally into the rostral back. WT=wild-type, A1 −/−=Trpa1-deficient knockout mice. Scratching behaviors were recorded 30 minutes post injection. […] G. S1pr3 transcript levels were quantified using qRT-PCR from skin of mice treated with vitamin D or ethanol control for 7 days to induce an atopic dermatitis-like condition. Data were normalized to Gapdh housekeeping gene. For all data, one way ANOVA was performed with a Tukey-Kramer post hoc statistical test. Tukey-Kramer values are reported and only p<0.05 were considered significant, ***=p<0.001. n.s.=not significant.

[1] = test system: KCNQ2/3 potassium channels (M channels); test: Excitability of mechanical nociceptor DRG neurons in vitro; format: cell-based; settings: via S1PR3, through closure of KCNQ2/3 potassium channels
Description: In situ RNA hybridization studies and protein localization studies indicate that S1pr3 is expressed in thermal nociceptors and mechanical nociceptors, as well as nociceptive free nerve endings in skin.

mice = test: Scratching behavior after intradermal injection into the rostral back; format: in vivo
wild-type mice [2] = test: Complete Freund's Adjuvant (CFA) model of chronic inflammation; format: in vivo
Description: S1PR3 knockout mice treated with CFA fail to develop thermal hypersensitivity and display normal mechanical sensitivity due to their baseline defect in mechanical pain sensation. They also display lessened paw swelling, possibly due to decreased neurogenic inflammation. […] Loss of S1P production with acute SKI II injection into the CFA-treated paw also reverses CFA thermal hypersensitivity.

wild-type mice [3] = test: Mechanical pain sensitivity (von Frey, tactile stimuli) in healthy wild-type mice; format: in vivo
Description: Likewise, in S1pr3^−/− mice, radiant heat withdrawal latencies were normal.
Pharmacological manipulation of S1PR3 or reduction of S1P levels lessens mechanical pain sensation in wild-type mice without affecting innocuous touch.
Blockade of S1PR1 with the selective antagonist W146 has no effect on mechanosensitivity. Tonic levels of S1P in the skin are responsible for S1PR3-mediated mechanical pain sensation.

[4] = S1PR3-deficient (S1PR3 −/−) mice
[5] = wildtype mice (WT), compared to physiological saline control
[6] = wild-type mice, delivered to the hindpaw after induction of CFA pain
[7] = wild-type mice, intradermal administration

T1 sequence (Q9Z0U9 whole entry): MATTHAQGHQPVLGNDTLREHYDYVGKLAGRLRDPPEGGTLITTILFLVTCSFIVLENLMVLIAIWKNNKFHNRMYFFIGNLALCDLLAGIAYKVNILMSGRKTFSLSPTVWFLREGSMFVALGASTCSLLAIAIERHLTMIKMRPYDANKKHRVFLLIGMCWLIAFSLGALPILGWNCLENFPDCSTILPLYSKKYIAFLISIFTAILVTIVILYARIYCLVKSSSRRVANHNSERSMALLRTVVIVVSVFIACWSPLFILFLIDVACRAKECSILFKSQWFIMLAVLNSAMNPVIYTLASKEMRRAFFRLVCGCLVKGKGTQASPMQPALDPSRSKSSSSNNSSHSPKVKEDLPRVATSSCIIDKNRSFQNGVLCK

O=C(c1cc(C2CC2)on1)N(C1CCCCC1)C1CCCCC1 [CYM 5541]
calcium responses in cultured DRG neurons (S1PR3; [4]): lack calcium responses | calcium responses in cultured DRG neurons (S1PR3; [5]): robust responses

CCCCCCCCCCCCC/C=C/[C@@H](O)[C@@H](N)COP(=O)(O)O [S1P, Sphingosine-1-phosphate]
calcium responses in cultured DRG neurons (S1PR3; [4]): lack calcium responses | calcium responses in cultured DRG neurons (S1PR3; [5]): robust responses | excitability of mechanical nociceptor DRG neurons [1]: increases the excitability | scratching behavior vs. vehicle (mice; S1PR3-deficient mice (S1PR3 −/−), 200 nM intradermally, 30 minutes post injection): no difference | scratching behavior (mice; mice (FIG. 1E), S1PR3-dependent opening of TRPA1): leads to scratching behavior in mice

Oc1ccc(Nc2nc(-c3ccc(Cl)cc3)cs2)cc1 [SKI II, 2-(p-hydroxyanilino)-4-(p-chlorophenyl)thiazole]
CFA thermal hypersensitivity (wild-type mice [2]; acute injection into the CFA-treated paw): reverses | mechanical pain sensitivity after block of local production of S1P (wild-type mice [3]; injection of 50 μM): mechanical pain sensitivity was dependent on local S1P in the skin

CC(C)(C)C(=O)C(=Nc1ccc(Cl)cc1)NNc1ccc(Cl)cc1 [TY 52156, N-(4-Chlorophenyl)-3,3-dimethyl-2-oxobutanimidic 2-(4-chlorophenyl) hydrazide]
effect on S1P-evoked calcium responses (S1PR3; wild-type DRG sensory neurons): attenuates | effect on the effects of the allosteric agonist CYM (calcium imaging) (S1PR3; wild-type DRG sensory neurons): does not block | mechanical thresholds (wild-type mice [2]; [6]): to pre-CFA, baseline levels | thermal thresholds (wild-type mice [2]; [6]): to pre-CFA, baseline levels | mechanosensitivity (wild-type mice [3]; [7]): promotes mechanical hyposensitivity | responsiveness to noxious tactile stimuli (wild-type mice [3]; [7]): decreases responsiveness

CCCCCCc1cccc(NC(=O)[C@H](N)CCP(=O)(O)O)c1 [W146]
mechanosensitivity (wild-type mice [3]; [7]): no effect
